# Data published in ChEMBL document CHEMBL1201862, “PubChem BioAssay data set” (2004).
# Active and inactive are the calls of the source.
# What was measured:
# [1] = target: T1, Calpain-2 catalytic subunit (Sus scrofa, UniProt P43367); assay: m-calpain protease blockers, concentration series – biochemical, fluorogenic peptide substrate, dose response (AID 1420); type: functional
# T1 sequence (P43367 whole entry): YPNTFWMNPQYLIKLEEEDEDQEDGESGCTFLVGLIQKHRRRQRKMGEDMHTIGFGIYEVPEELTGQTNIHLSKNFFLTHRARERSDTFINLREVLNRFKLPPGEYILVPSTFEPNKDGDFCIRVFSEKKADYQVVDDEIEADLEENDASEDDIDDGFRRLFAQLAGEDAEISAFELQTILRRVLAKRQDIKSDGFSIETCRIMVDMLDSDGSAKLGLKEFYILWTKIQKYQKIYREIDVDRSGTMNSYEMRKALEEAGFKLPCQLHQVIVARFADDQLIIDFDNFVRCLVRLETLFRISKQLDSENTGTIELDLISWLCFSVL
# [2] = target: Luciferin 4-monooxygenase (Photinus pyralis, UniProt P08659); assay: inhibition of purified Photinus pyralis luciferase – biochemical, luminescence, dose response (AID 1891)
# [3] = Luminescence Cell-Based Dose Confirmation HTS to Identify Inhibitors of Platelet Dense Granule Release. [Related pubchem assays: 1663 (Primary HTS), 1678 (Summary of Project)]; type: functional
# [4] = target: T2, Ubiquitin-conjugating enzyme E2 N (Homo sapiens, UniProt P61088); type: functional;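 note: Dose-response confirmation in a TR-FRET assay detecting UBC13-driven polyubiquitin chain formation, inhibition measured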
# T2 sequence (P61088 whole entry): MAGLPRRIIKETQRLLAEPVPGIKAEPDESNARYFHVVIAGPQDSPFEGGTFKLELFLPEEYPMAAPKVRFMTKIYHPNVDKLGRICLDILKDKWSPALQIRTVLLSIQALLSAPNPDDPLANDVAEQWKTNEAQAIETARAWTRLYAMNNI
# Cytochrome P450 2D6 = Cytochrome P450 2D6 (Homo sapiens, UniProt P10635);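 note: CYP2D6 member of a cytochrome P450 panel assay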
# Cytochrome P450 1A2 = target: T3, Cytochrome P450 1A2 (Homo sapiens, UniProt P05177);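 note: PubChem cytochrome P450 panel assay, CYP1A2 panel member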
# T3 sequence (P05177 whole entry): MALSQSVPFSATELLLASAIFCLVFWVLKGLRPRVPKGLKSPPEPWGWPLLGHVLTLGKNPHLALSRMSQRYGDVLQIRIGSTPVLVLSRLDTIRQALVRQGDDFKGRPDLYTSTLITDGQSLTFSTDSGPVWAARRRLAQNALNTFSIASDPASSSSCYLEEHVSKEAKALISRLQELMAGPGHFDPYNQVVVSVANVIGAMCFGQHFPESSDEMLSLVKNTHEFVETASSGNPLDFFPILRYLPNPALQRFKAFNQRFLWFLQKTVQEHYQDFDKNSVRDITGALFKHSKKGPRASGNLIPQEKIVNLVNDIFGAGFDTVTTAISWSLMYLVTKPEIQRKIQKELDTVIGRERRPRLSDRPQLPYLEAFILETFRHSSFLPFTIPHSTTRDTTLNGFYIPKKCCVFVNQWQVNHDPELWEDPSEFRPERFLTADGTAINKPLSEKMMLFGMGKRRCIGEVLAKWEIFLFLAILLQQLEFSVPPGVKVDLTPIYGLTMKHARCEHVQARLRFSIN
# [5] = P. falciparum Dd2 growth inhibitors, dose response, SYBR Green, cherry-picked samples (AID 1159567); type: functional, cell-based
# H9c2 = assay: cells; type: functional, cell-based; conditions: Rattus norvegicus, H9c2, Myocardium;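 note: confirmatory concentration-response retest of ultra-high-throughput screening hits for modulation of myocardial damage; cell death induced by hydrogen peroxide oxidative stress; compound pretreatment for 60 min then peroxide exposure for 2 h; potency is for protecting the cells against peroxide damage rather than for killing them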
# Cytochrome P450 2C9 = Cytochrome P450 2C9 (Homo sapiens, UniProt P11712)
# [6] = target: Heat shock protein HSP 90-alpha (Homo sapiens, UniProt P07900); type: functional, organism-based
# [7] = microbe, parasite or virus in culture; type: functional; conditions: Mycobacterium tuberculosis
# Cytochrome P450 2C19 = Cytochrome P450 2C19 (Homo sapiens, UniProt P33261); assay: Cytochrome panel assay with activity outcomes. Panel member name: p450-cyp2c19 Compounds with AC50 equal or less than 10 uM are considered active; type: functional; conditions: read-out: AC50
# Cytochrome P450 3A4 = Cytochrome P450 3A4 (Homo sapiens, UniProt P08684);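 note: CYP3A4 tested as one member of a cytochrome P450 panel screen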
# [8] = Luminescence Cell-Based Dose Retest to Confirm Inhibitors of Cancer Stem Cells. [Related pubchem assays (depositor defined):AID2717, AID2721]; type: functional; conditions: Homo sapiens
# [9] = luciferase reporter signal suppression in cells – H4 neuroglioma cells, luminescence, dose response (AID 1990); type: functional, cell-based
# [10] = Luminescence Cell-Based Dose Response HTS to Identify Inhibitors of 5'UTR Stem-Loop Driven Prion Protein mRNA Translation in H4 Neuroglioblastoma Cells. [Related pubchem assays: 1827 (Project Summary), 1813 (Primary HTS)]; type: functional
# [11] = alpha-synuclein stem-loop luciferase translation blockers – H4 neuroglioma cells, luminescence, confirmation (AID 1988); type: functional, cell-based
# [12] = test system: Streptococcus sp. 'group A'; assay: Streptococcus pyogenes SK(-)GAS viability under kanamycin – luminescence, BacTiterGlo, confirmation, counter-screen for streptokinase expression inhibitor project, dose response (AID 1900); type: functional, organism-based
# Streptococcus = assay: GAS UMAA2166 growth inhibition – luminescence, BacTiterGlo, counter-screen for streptokinase expression inhibitor project, dose response (AID 1915); type: functional, organism-based;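 note: potency for reduction of bacterial viability or growth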
# Fatty acid synthase = Fatty acid synthase (Homo sapiens, UniProt P49327); assay: inhibition of human FAS-TE enzyme activity – biochemical, kinetic fluorescence intensity, dose response (AID 624326); type: functional;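 note: rate of fluorescence rise from hydrolysis of a fluorogenic O-methyl fluorescein ester substrate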
# [13] = target: T4, Heat shock factor protein 1 (Mus musculus, UniProt P38532); assay: enhancement of HSF1-driven luciferase signal – cell-based, NIH3T3, luminescence, dose retest, confirmation (AID 435004); type: functional;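 note: stress induced by proteasome inhibitor MG132 added 30 min after compound; luciferase reporter driven by HSF1 response element in NIH3T3 cells; actives raise luminescence as potentiators of the MG132 stress response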
# T4 sequence (P38532 whole entry): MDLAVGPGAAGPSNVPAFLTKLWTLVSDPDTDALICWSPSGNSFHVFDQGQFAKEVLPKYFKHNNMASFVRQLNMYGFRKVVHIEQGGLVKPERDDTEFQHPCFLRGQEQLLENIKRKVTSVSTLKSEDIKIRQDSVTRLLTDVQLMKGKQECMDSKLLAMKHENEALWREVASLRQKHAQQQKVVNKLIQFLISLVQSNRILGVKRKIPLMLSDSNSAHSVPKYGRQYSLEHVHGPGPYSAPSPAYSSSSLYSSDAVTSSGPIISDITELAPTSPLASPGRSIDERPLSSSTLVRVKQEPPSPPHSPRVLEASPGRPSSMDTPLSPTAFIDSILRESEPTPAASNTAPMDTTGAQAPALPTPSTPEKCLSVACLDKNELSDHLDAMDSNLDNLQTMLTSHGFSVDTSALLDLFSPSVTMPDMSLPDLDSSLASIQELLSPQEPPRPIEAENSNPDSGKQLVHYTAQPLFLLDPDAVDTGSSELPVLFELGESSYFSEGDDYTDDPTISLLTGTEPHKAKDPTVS
# Luciferin 4-monooxygenase, sequence (P08659 whole entry): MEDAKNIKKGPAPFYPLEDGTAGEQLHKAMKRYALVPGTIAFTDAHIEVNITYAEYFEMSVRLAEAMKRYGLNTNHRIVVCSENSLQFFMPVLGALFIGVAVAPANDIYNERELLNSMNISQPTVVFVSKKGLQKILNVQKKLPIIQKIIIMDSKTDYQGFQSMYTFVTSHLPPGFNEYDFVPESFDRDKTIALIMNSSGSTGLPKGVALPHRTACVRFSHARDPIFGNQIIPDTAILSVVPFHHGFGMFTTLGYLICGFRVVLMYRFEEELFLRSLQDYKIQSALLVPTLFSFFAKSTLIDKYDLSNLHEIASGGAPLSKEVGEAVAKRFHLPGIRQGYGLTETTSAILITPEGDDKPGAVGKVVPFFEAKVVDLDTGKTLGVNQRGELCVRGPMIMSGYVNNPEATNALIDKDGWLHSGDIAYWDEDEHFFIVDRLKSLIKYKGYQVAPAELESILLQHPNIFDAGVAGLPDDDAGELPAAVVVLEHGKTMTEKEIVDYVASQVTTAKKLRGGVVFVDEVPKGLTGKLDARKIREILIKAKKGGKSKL
# Cytochrome P450 2D6, sequence (P10635 whole entry): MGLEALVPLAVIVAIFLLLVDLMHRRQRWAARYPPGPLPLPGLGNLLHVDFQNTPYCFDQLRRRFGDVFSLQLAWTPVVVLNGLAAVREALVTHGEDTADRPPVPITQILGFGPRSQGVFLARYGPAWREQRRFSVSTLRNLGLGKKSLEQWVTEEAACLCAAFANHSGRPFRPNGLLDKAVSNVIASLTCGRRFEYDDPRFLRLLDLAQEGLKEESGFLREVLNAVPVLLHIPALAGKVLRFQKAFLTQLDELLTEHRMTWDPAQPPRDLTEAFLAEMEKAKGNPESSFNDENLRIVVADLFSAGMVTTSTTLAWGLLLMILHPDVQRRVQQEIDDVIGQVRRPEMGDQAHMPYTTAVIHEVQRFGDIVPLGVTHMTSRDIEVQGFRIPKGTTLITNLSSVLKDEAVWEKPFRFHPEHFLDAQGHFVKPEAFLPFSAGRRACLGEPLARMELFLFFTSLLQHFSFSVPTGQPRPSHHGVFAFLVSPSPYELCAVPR
# Cytochrome P450 2C9, sequence (P11712 whole entry): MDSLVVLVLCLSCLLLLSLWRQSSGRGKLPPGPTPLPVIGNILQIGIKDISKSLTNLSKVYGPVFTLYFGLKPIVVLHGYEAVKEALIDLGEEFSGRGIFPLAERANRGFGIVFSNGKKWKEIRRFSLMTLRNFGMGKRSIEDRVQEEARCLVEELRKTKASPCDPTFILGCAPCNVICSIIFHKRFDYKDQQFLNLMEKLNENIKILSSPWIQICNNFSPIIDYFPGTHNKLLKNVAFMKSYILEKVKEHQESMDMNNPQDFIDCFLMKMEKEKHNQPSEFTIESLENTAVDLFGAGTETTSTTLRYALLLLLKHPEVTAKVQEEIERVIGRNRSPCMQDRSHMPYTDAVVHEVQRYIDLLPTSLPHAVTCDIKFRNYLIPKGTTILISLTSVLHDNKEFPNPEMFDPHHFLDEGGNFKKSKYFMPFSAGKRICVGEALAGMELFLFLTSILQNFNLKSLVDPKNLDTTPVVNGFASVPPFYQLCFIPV
# Cytochrome P450 2C19, sequence (P33261 whole entry): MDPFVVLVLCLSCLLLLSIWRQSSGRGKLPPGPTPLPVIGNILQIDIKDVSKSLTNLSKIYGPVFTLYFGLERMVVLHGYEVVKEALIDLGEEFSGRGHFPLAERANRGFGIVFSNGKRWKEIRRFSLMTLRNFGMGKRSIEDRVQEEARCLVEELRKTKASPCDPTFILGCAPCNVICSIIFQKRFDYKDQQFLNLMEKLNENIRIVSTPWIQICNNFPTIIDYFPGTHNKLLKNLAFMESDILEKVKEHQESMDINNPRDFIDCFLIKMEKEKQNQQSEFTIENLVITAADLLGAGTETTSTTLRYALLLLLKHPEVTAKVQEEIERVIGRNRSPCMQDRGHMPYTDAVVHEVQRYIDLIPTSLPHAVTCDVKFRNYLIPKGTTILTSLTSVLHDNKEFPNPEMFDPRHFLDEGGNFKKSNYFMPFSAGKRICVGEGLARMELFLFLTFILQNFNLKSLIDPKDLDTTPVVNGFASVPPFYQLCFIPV
# Fatty acid synthase, sequence (P49327 whole entry): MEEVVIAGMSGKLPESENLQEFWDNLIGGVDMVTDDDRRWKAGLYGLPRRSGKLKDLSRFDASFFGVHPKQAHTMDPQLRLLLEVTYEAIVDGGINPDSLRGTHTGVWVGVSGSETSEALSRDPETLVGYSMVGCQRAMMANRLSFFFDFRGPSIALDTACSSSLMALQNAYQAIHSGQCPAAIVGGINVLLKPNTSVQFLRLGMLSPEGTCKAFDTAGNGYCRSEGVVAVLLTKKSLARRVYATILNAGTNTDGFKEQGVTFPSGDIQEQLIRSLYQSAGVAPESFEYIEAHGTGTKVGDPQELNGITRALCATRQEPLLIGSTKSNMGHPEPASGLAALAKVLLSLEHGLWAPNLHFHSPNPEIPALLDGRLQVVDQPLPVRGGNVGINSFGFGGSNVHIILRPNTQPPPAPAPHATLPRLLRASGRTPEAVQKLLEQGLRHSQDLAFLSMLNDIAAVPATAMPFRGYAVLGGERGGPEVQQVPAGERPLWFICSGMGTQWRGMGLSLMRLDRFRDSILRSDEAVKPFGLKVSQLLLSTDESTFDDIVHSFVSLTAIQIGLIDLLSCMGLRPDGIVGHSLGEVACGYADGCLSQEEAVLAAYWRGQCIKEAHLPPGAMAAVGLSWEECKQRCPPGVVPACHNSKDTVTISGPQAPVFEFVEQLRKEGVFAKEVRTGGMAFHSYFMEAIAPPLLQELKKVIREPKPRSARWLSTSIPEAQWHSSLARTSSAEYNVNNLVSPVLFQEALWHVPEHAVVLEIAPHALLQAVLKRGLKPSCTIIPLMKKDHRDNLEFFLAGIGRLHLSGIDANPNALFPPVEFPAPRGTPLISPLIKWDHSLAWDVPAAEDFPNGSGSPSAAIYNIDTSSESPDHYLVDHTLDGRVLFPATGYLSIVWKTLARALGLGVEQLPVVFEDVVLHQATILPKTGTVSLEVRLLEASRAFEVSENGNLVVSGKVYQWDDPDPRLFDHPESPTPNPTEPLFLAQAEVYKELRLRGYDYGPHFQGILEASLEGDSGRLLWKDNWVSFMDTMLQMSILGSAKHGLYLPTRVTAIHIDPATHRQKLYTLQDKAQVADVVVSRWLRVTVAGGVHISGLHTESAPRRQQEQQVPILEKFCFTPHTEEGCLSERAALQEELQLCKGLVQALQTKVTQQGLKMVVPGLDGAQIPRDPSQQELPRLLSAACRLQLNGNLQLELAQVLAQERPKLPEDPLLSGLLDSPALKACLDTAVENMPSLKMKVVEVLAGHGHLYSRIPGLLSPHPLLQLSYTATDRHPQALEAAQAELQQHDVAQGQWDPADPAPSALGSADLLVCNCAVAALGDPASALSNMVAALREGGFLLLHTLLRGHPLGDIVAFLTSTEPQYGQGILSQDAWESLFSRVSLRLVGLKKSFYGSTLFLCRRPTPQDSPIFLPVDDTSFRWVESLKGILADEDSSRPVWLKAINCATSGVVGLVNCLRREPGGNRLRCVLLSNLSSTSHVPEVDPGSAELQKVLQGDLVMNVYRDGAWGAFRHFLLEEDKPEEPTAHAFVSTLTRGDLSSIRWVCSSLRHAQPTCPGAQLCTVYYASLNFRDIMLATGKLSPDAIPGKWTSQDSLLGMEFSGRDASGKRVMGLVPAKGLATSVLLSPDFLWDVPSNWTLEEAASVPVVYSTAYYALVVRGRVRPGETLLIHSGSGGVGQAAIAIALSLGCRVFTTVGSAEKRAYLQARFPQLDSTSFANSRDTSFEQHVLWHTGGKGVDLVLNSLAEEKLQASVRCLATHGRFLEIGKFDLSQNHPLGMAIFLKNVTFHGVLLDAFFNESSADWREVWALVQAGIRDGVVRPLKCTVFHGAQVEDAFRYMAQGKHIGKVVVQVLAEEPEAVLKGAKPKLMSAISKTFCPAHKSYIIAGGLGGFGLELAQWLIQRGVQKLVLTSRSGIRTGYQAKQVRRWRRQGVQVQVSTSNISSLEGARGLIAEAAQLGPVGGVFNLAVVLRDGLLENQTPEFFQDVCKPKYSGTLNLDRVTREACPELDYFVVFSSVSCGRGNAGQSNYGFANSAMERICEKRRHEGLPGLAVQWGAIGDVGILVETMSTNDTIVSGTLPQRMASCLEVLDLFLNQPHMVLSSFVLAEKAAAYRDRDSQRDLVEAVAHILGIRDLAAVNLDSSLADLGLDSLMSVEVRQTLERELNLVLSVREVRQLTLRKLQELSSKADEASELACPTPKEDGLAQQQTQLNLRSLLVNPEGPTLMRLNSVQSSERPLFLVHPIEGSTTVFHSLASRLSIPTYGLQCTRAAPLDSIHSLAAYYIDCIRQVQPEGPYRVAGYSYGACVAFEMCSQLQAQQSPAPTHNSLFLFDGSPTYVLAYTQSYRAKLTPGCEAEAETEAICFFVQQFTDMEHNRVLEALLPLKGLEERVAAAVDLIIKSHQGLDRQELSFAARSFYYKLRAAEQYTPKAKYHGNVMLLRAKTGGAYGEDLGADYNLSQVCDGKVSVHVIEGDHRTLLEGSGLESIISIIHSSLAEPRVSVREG
# Cytochrome P450 3A4, sequence (P08684 whole entry): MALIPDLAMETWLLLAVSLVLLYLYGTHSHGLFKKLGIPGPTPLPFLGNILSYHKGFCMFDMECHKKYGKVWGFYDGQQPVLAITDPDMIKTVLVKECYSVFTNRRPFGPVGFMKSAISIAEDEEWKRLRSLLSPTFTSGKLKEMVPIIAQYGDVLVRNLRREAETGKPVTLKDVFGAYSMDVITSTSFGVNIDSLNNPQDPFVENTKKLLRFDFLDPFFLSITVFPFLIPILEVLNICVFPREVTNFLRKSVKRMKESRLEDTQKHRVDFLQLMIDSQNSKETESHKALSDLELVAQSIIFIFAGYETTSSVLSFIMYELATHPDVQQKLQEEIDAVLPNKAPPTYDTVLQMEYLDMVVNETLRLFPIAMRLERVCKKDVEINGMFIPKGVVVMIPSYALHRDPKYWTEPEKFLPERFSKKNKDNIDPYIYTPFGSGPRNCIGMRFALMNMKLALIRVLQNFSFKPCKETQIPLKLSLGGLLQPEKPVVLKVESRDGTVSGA
smiles,measurement,setting,value
CC1CCN(c2nc3nonc3nc2Nc2ccc(F)cc2)CC1,IC50,[1],11.7 µM (not active)
CN(CC(=O)Nc1ccccc1Br)C(=O)C(Cc1ccccc1)NC(=O)c1ccccc1 (centres undefined),EC50,[2],> 112 µM (not active)
same,EC50,[3],> 112 µM (not active)
FC(F)(F)c1nnc2ccc(NCc3ccccc3)nn12,IC50,[1],2.23 µM (active)
CCC(=O)N(C)CCc1cc2c(c(OC)c1/C=N/NC(=O)c1ccccc1O)OCO2,EC50,[2],> 112 µM (not active)
same,EC50,[3],> 112 µM (not active)
Cc1ccc(-c2noc(CCC(=O)Nc3ccccc3N3CCN(C)CC3)n2)cc1,IC50,[4],> 20 µM (inactive)
CCn1c2ccccc2c2cc(/N=C3/SC(CC(=O)Nc4ccccc4)C(=O)N3C)ccc21 (centres undefined),AC50,Cytochrome P450 2D6,7.08 µM (inconclusive)
same,AC50,Cytochrome P450 1A2,3.16 µM (inconclusive)
C[C@@H]1CN([C@@H](C)CO)C(=O)c2c(c3ccccc3n2C)-c2ccccc2CO[C@H]1CN(C)Cc1cccc(C(=O)Nc2ccccc2N)c1,AC50,[5],2.81 µM (active)
Cc1cc(C(=O)N/N=C/c2c(CO)cnc(C)c2O)c2ccccc2n1,IC50,H9c2,> 79 µM (inactive)
N#Cc1cccc(-c2nc3cnc(Nc4ccccc4)nc3n(C[C@H]3CCCO3)c2=O)c1,AC50,Cytochrome P450 2D6,1 µM (inconclusive)
same,AC50,Cytochrome P450 1A2,2 µM (inconclusive)
same,AC50,Cytochrome P450 2C9,10 µM (inconclusive)
Cc1cnc(C(=O)OCC(=O)Nc2ccc(Cl)cc2Cl)cn1,EC50,[2],> 112 µM (not active)
same,EC50,[3],14.8 µM (active)
O=C(NCC1CCCO1)c1cc([N+](=O)[O-])ccc1N1CCC(Cc2ccccc2)CC1 (centres undefined),AC50,[6],4.28 µM (active)
CCOC(=O)C1CCN(C(c2cc3c(C)ccc(C)c3nc2O)c2nnnn2C2CCCCC2)CC1 (centres undefined),IC50,H9c2,> 79 µM (inactive)
CCCC#Cc1ccc(CC[C@H]2O[C@H]3CC[C@H](CO)O[C@H]3C[C@@H]2n2cc(C(C)(C)O)nn2)cc1,AC50,[5],16.8 µM (active)
O=C(Nc1ccccc1)c1nc[nH]c1C(=O)NCCCCNC(=O)c1nc[nH]c1C(=O)Nc1ccccc1,IC50,H9c2,> 79 µM (inactive)
NC(=O)c1cccc(Nc2nc(C(N)COCc3ccccc3)cs2)n1 (centres undefined),IC50,H9c2,19.8 µM (active)
O=C(COC(=O)Cc1nnc(O)c2ccccc12)Nc1ccc(Cl)cn1,IC50,H9c2,> 79 µM (inactive)
O=C(CSc1ccc(-c2ccco2)nn1)c1ccccc1,EC50,[2],> 112 µM (not active)
same,EC50,[3],> 112 µM (not active)
COc1ccc(/N=C/c2cc(Cc3ccccc3Cl)cc([N+](=O)[O-])c2O)cc1OC,AC50,[6],1.6 µM (active)
Cn1cnc([N+](=O)[O-])c1Nc1ccccc1O,EC50,[2],> 112 µM (not active)
same,EC50,[3],> 112 µM (not active)
CCOC(=O)c1ccc(/N=C2/S/C(=C\c3cc(C)n(-c4cccnc4)c3C)C(=O)N2C)cc1,CC50,[7],> 40 µM (active)
Oc1nc(NCc2ccccc2)nc2c1CCCC2,IC50,H9c2,52.3 µM (inactive)
COc1ccc(CCNC(=O)C[S+]([O-])Cc2nc(-c3ccc(C)cc3)oc2C)cc1OC (centres undefined),EC50,[2],> 112 µM (not active)
same,EC50,[3],> 112 µM (not active)
C#CCNC(=O)C1=C[C@H](c2cn(C(C)=O)c3ccccc23)C[C@H](OCc2ccc(CO)cc2)O1,IC50,[4],> 20 µM (inactive)
CCCc1nc2oc(C(=O)OCC)c(N)c2c2c1COC(C)(C)C2,CC50,[7],> 40 µM (active)
CC(C)NC(=O)N1[C@H](C#N)[C@H](c2ccccc2-c2ccc(F)cc2)[C@@H]1CO,AC50,[5],3.57 µM (active)
COC(=O)[C@@]1(Cc2ccccc2)[C@H]2c3cc(C(=O)N4CCCC4)n(CCN4CNCC4=O)c3C[C@H]2CN1C(=O)c1ccccc1,AC50,Cytochrome P450 2C19,39.8 µM (inconclusive)
same,AC50,Cytochrome P450 2D6,39.8 µM (inconclusive)
same,AC50,Cytochrome P450 1A2,25.1 µM (inconclusive)
same,AC50,Cytochrome P450 3A4,1.58 µM (inconclusive)
CSCCC(NC(=O)c1ccccc1Cl)C(=O)NNC(=O)c1csc(N2CCOCC2)n1 (centres undefined),IC50,[4],> 20 µM (inactive)
C[C@H]1CN([C@@H](C)CO)C(=O)c2c(c3ccccc3n2C)-c2ccccc2CO[C@@H]1CN(C)Cc1cccc(O)c1,AC50,[5],3.24 µM (active)
Cc1ccc(C(C(=O)NCC2CCCO2)N(C(=O)c2snc(C(N)=O)c2N)c2ccc(C)c(C)c2)o1 (centres undefined),IC50,[4],> 20 µM (inactive)
CCCC(=O)Nc1cc(C(F)(F)F)ccc1N1CCOCC1,EC50,[2],> 112 µM (not active)
same,EC50,[3],> 112 µM (not active)
Cc1c(CCC(=O)NCCCn2ccnc2)c(=O)oc2c(C)c3occ(C(C)(C)C)c3cc12,CC50,[7],22.1 µM (active)
N#Cc1cccc(-c2ccc([C@@H]3[C@@H]4CN(C(=O)C5CCC5)C[C@H]3N4)cc2)c1,AC50,[5],3.71 µM (active)
CC(/C=C/c1ccc(Cl)o1)=C\C(=O)O,EC50,[2],> 112 µM (not active)
same,EC50,[3],> 112 µM (not active)
Cc1ccc(C2SCCN2C(=O)c2ccc([N+](=O)[O-])cc2)cc1 (centres undefined),EC50,[2],> 112 µM (not active)
same,EC50,[3],> 112 µM (not active)
CC(C)n1nc(C(=O)OCC(=O)c2c[nH]c3ccccc23)c2ccccc2c1=O,IC50,[1],0.91 µM (not active)
same,IC50,H9c2,27.3 µM (active)
CCCCNC(=S)N(C)/N=C/c1ccc2c(c1)OCO2,CC50,[7],> 40 µM (active)
same,AC50,[8],2.04 µM (active)
O=C(CCc1nc(O)c2ccccc2n1)NNC(=O)COc1cccc(F)c1,IC50,H9c2,> 79 µM (inactive)
O=[N+]([O-])c1cc(-n2cnnn2)ccc1N1CCC(Cc2ccccc2)CC1,AC50,[6],4.38 µM (active)
CCc1c(C2(O)CCCCC2)[nH]c2ccc(C(F)(F)F)cc12,EC50,[9],60.5 µM (active)
same,EC50,[10],> 120 µM (not active)
same,EC50,[11],8.44 µM (active)
same,CC50,[7],27.1 µM (active)
same,AC50,[8],2.64 µM (active)
Oc1ccccc1C1=NN(c2ccccc2)C(c2ccccc2)C1 (centres undefined),EC50,[12],4.06 µM (active)
same,EC50,Streptococcus,6.93 µM (active)
same,AC50,[8],1.29 µM (active)
same,AC50,[6],4.3 µM (active)
CN(C(=O)Nc1ccc(Cl)cc1Cl)[C@H]1c2cc(Br)ccc2OC[C@H]1CO,IC50,Fatty acid synthase,11.3 µM (active)
COc1ccccc1N(C)S(=O)(=O)c1ccc(C(=O)Nc2ccc3nc(C)sc3c2)cc1,CC50,[7],38.1 µM (active)
CC(C)C(=O)Nc1ncc(Cc2ccc(Cl)cc2)s1,IC50,[1],5.63 µM (not active)
Cc1ccc(S(=O)(=O)N(C)c2ccc(C)c([N+](=O)[O-])c2)cc1,IC50,[1],18.8 µM (not active)
same,EC50,[13],> 260 µM (inactive)
